Read-outs that look alike come from different tables or passages of the source.
Tests used:
[1] = test system: Wi-38 human lung fibroblasts; assay: MTT cell survival assay, non-cancerous cells; type: cell-based; conditions: Wi-38 fibroblasts, DMEM; read-out: IC50, cell growth in DMEM
Description: (§1) Cell lines and culture conditions. […] Cells were grown in DMEM containing 10% FCS and 1% penicillin/streptomycin at 37° C. in 5% CO2. The Wi-38 human lung fibroblasts were obtained from American Type Culture Collection, and were grown in DMEM as described above. Adult human epidermal keratinocytes were purchased from Cascade Biologics, and were maintained in EpiLife medium with growth supplements as described by the manufacturer.
(§2) MTT cell survival assay and isobologram studies. […] Triplicate wells were used for each treatment. The final concentration of DMSO (a solvent for conventional ceramides, GMZ and DOX) in the growth medium was less than 0.1% (v/v) which has no effect on cell growth and survival. Pyridinium ceramides were dissolved in sterile water or growth medium. In short, after cells (5-10×10^3/well) were seeded in 96-well-plates for 24 hr, they were treated with increasing concentrations of ceramide analogs for an additional 48 or 96 hr. For combination treatments, ceramides and chemotherapeutic agents (gemcitabine (GMZ) or doxorubicin (DOX)) were added to the growth medium simultaneously during treatment. Isobologram plots were then constructed using IC50 values of the two agents alone or in combination obtained from MTT assays. A straight line joining points on x- and y-axes represent the IC50 concentrations of two agents, and the points representing the IC50 concentrations of the combination of the two agents are represented as scatter plots on the same graphs.

[2] = test system: adult human epidermal keratinocytes (HEK); assay: MTT cell survival assay, non-cancerous cells; type: cell-based
Description: as §1, §2

[3] = test system: telomerase; assay: Telomerase activity (TRAP) in treated cells; type: cell-based, human; conditions: UM-SCC-22A
Description: (§3) FIGS. 13A to 13B. Roles of CCPS on cell cycle profiles, and telomerase activity of UM-SCC-22A cells. (FIG. 13A) The effects of D-e-C6—, D-e-C12- and L-th-C12-pyridinium ceramides (at 1 μM for 48 hr) on cell cycle profiles of UM-SCC-22A cells were determined and compared to that of untreated cells using flow cytometry as described in Materials and Methods. (FIG. 13B) The effects of 0, 100, 250 and 500 nM L-t-C6-Pyr-Cer (LCL-124) (lanes 1-4, respectively) at 96 hr treatment in UM-SCC-22A cells on telomerase activity was assessed using TRAP assay. Lanes 5 and 6 contain positive (+) and negative (−) controls. To examine whether C6-Pyr-Cer inhibits telomerase activity directly, cell extracts (as shown in lane 1) were incubated in the presence of various concentrations of L-th-C6-Pyr-ceramide (LCL-124; 10, 20 and 100 μM) and telomerase activity was determined using TRAP assay (lanes 7-9, respectively). The presence of non-telomeric 36 bp internal standard (IS) in the TRAP assay serves as a control for polymerase chain reaction, and used for quantitation/normalization of the activity of telomerase. The results shown are representative of at least two independent experiments.
FIGS. 14A to 14D. […] (FIG. 14A) The effects of various chemotherapeutic agents on cell growth in UM-SCC-22A cells were determined using MTT assays, and the IC50 concentrations of each agent were determined from cell growth plots as described. (FIG. 14B) The synergistic effects of DOX and L-th-C6-Pyr-Cer (LCL-124) on cell growth were assessed using isobologram studies as described in Materials and Methods. (FIG. 14C) The effects of 1 μM L-th-C6-Pyr-Cer (LCL-124) or cetyl-pyridinium-bromide, without ceramide conjugate (used as a control) on the growth inhibition potential of GMZ in UM-SCC-22A cells were determined using MTT assays. (FIG. 14D) The effects of GMZ (100 nM), L-th-C6-Pyr-Cer (LCL-124; 1 μM) or GMZ and L-th-C6-Pyr-Cer (LCL-124) (100 nM and 1 μM, respectively) on telomerase activity in UM-SCC-22A cells at 48 hr were examined using TRAP assay, and compared to that of untreated controls (lanes 2, 3, 4 and 1, respectively). The data shown are representative of at least two independent experiments performed in triplicate samples. Standard deviations in each sample were between 0.1-0.5.
Determination of telomerase activity. Telomerase activity in cell extracts was measured by the PCR-based telomere repeat amplification protocol (TRAP) using TRAPeze kit (Intergen, Gaithersburg, Md.) which includes a 36-bp internal control to allow quantification of activity. In short, the intensity of telomere-specific DNA bands, measured using Quantity One (BioRad) software, were normalized to the intensity of internal control bands for each sample on polyacrylamide gels for quantification.

[4] = test system: UM-SCC-22A cells; assay: Apoptotic cell death by annexin V staining; type: cell-based, human
From the text: Thus, these ceramide analogs appear to exert minimal apoptotic activity on their own, with selective cell cycle arrest in these cells.

[5] = test system: UM-SCC12 cells; assay: MTT cell survival assay; type: cell-based, human; conditions: UM-SCC12, 96 hr
Description: as §1
as §2, with “A straight line joining points on x- and y-axes represent the IC50 concentrations of two agents, and the points representing the IC50 concentrations of the combination of the two agents are represented as scatter plots on the same graphs.” left out

[6] = target: T1, telomerase (Homo sapiens, UniProt O14746); assay: Telomerase activity (TRAP), compound applied directly to cell extracts; type: biochemical; conditions: 10, 20 and 100 μM
T1 construct: endogenous in cells; host or cells: UM-SCC-22A
Description: as §3, with “The results shown are representative of at least two independent experiments.” left out
Determination of telomerase activity. Telomerase activity in cell extracts was measured by the PCR-based telomere repeat amplification protocol (TRAP) using TRAPeze kit (Intergen, Gaithersburg, Md.) which includes a 36-bp internal control to allow quantification of activity. […]

[7] = test system: UM-SCC-22A cells; assay: MTT cell survival assay and isobologram studies; type: cell-based, human
[8] = test system: UM-SCC-1 cells; assay: MTT cell survival assay; type: cell-based, human; conditions: UM-SCC-1, 96 hr; read-out: IC50, cell survival
Description: as §1
as §2, with “A straight line joining points on x- and y-axes represent the IC50 concentrations of two agents, and the points representing the IC50 concentrations of the combination of the two agents are represented as scatter plots on the same graphs.” left out

T1 sequence (O14746 whole entry): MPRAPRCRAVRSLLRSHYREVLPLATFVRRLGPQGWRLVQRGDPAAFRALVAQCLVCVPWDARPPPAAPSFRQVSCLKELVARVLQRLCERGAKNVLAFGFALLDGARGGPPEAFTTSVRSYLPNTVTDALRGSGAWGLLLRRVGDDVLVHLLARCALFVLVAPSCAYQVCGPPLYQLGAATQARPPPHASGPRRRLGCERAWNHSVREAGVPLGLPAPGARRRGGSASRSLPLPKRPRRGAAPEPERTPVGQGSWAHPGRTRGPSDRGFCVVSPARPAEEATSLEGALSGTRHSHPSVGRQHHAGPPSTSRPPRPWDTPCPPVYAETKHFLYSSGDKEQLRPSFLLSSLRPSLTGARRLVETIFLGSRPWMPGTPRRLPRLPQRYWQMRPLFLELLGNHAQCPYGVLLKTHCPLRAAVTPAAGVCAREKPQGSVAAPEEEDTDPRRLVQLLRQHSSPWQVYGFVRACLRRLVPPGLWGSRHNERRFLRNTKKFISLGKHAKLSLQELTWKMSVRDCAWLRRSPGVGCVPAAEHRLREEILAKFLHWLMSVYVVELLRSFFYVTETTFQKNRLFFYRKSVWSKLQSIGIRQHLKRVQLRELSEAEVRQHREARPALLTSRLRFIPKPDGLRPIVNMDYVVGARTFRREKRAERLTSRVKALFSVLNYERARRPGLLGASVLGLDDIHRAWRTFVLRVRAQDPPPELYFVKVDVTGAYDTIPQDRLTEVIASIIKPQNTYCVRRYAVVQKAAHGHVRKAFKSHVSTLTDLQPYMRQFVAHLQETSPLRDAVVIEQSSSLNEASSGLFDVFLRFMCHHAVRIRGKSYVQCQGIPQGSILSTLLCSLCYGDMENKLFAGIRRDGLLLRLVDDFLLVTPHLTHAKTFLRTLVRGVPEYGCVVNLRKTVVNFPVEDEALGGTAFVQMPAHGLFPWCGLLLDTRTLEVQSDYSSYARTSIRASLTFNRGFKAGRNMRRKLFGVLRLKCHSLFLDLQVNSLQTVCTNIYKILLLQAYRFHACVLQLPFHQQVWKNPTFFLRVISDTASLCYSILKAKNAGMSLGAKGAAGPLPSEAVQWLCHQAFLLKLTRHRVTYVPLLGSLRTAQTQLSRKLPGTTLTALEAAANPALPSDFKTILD
T1 sequence (O60832 whole entry partner): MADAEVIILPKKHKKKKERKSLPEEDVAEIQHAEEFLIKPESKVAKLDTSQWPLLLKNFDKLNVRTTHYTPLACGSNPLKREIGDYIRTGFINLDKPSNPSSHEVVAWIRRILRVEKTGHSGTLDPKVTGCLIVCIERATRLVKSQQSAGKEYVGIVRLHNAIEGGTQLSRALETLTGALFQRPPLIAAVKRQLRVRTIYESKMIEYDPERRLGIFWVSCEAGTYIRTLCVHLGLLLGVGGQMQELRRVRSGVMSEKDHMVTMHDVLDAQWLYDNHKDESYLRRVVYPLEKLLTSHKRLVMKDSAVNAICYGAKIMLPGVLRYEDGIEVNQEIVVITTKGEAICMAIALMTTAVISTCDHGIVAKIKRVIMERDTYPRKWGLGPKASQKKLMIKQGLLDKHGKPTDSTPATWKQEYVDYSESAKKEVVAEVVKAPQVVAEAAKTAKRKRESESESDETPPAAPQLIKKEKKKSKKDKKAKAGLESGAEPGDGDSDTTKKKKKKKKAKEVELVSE
T1 sequence (Q9NPE3 whole entry partner): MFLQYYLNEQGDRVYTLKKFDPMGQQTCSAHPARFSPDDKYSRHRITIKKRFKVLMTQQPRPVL
T1 sequence (Q9NX24 whole entry partner): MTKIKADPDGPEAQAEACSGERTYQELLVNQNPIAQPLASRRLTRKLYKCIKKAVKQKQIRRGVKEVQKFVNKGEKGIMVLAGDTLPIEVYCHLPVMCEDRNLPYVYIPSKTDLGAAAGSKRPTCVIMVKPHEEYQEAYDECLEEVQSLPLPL
T1 sequence (Q9NY12 whole entry partner): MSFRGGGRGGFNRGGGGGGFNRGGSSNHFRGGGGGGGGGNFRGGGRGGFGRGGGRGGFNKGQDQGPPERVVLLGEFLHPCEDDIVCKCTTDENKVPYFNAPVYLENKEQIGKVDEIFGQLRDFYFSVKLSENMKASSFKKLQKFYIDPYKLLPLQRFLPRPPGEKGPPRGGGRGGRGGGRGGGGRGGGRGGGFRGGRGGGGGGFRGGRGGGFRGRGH
T1 sequence (Q9BUR4 whole entry partner): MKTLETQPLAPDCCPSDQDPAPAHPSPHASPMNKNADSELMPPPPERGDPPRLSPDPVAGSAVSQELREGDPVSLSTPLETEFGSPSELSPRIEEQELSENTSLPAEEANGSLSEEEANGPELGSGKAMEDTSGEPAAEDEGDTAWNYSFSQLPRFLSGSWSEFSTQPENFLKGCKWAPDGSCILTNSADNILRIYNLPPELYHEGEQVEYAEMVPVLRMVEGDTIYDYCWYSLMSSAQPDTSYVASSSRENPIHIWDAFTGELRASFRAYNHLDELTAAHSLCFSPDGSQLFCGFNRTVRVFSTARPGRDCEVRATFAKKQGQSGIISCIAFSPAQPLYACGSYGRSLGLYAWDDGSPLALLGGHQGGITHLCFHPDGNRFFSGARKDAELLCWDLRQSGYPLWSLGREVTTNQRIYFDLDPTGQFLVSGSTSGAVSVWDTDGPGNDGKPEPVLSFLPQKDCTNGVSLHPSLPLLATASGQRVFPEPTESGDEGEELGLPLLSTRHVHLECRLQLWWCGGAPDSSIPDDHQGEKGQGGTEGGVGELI

CCCCCCCCCCCCCC=CC(O)C(CO)NC(=O)CCCCC[n+]1ccccc1 (stereo not drawn) [C6-Pyr-Cer]
IC50 [1]: > 1000 nM
IC50 ([2]; HEK, EpiLife medium, 96 hr, read-out: IC50, cell growth in EpiLife medium): > 2000 nM
IC50 ([2]; keratinocytes, DMEM, read-out: IC50, cell growth in DMEM): > 1000 nM
inhibition of telomerase activity ([3]; 100 nM, 96 hr): about 30%
inhibition of telomerase activity ([3]; 250 nM, 96 hr): ~50%
inhibition of telomerase activity ([3]; 500 nM, 96 hr): ~75%
inhibition of telomerase activity ([3]; 48 hr, C6-Pyr-Cer 1 μM, GMZ 100 nM): 30%
apoptotic cell death, annexin V staining [4]: did not show any detectable signal
IC50 [5]: 250 to 300 nM
effect on telomerase activity when applied directly to the extracts [6]: no significant effect on telomerase activity
effect on the growth inhibition by GMZ ([7]; UM-SCC-22A, 1 μM with various concentrations of GMZ, 48 hr): enhanced the anti-proliferative effects of GMZ
interaction with DOX, isobologram ([7]; UM-SCC-22A, 25, 50 and 100 nM with DOX, 96 hr): decreased growth synergistically
fold more effective in inhibiting cell growth than conventional C6-ceramides ([7]; UM-SCC-22A, 96 hr): > 4 fold
optimum concentration for synergistic interaction with DOX ([7]; UM-SCC-22A, 96 hr): 50 nM
IC50 ([7]; UM-SCC-22A, 96 hr, DMEM, read-out: IC50, cell growth): ~300 nM
IC50 ([7]; UM-SCC-22A, EpiLife medium, 96 hr, read-out: IC50, cell growth in EpiLife medium): > 2000 nM
fold more effective in squamous cell carcinoma cells than in non-cancerous fibroblasts or keratinocytes ([7]; in vitro): > 4 fold
IC50 [8]: 250 to 300 nM

— patent publication US8093393B2, “Cationic ceramides, and analogs thereof, and their use for preventing or treating cancer” (MUSC Foundation for Research Development, priority 2004, dated 2012)
